Read-outs that look alike come from different tables or passages of the source.
Key:
Test in all cases: Kinase inhibitory activity profiling of RI-962@10 µM (406 kinases, Eurofins)
Type in all cases: biochemical
[1] = molecular target: panel of human kinases (kinase named in endpoint) (Homo sapiens, UniProt P23443); conditions: 10 µM; read-out: Activity (%), p70S6K(h)
Outline: (§1)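 Radiometric filter-binding kinase assays: enzyme preincubated 15 min with compound in 8 mM MOPS pH 7.0, 0.2 mM EDTA, 250 μM peptide substrate, 10 mM magnesium acetate, 10 μM [γ-33P]-ATP. Reaction started with Mg/ATP, run 40 min at room temperature, stopped with phosphoric acid; 33P incorporation read by scintillation counting. Other kinases by similar protocols.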

[2] = molecular target: panel of human kinases (kinase named in endpoint) (Homo sapiens, UniProt P78362); conditions: 10 µM; read-out: Activity (%), SRPK2(h)
Outline: as §1

[3] = molecular target: panel of human kinases (kinase named in endpoint) (Homo sapiens, UniProt P43405); conditions: 10 µM; read-out: Activity (%), Syk(h)
Outline: as §1

[4] = molecular target: panel of human kinases (kinase named in endpoint) (Homo sapiens, UniProt P51956); conditions: 10 µM; read-out: Activity (%), NEK3(h)
Outline: as §1

[5] = molecular target: panel of human kinases (kinase named in endpoint) (Homo sapiens, UniProt Q15349); conditions: 10 µM; read-out: Activity (%), Rsk3(h)
Outline: as §1

[6] = molecular target: panel of human kinases (kinase named in endpoint) (Homo sapiens, UniProt Q6PHR2); conditions: 10 µM; read-out: Activity (%), ULK3(h)
Outline: as §1

[7] = molecular target: panel of human kinases (kinase named in endpoint) (Homo sapiens, UniProt P31751); conditions: 10 µM; read-out: Activity (%), PKBβ(h)
Outline: as §1

[8] = molecular target: panel of human kinases (kinase named in endpoint) (Homo sapiens, UniProt Q9H2G2); conditions: 10 µM; read-out: Activity (%), SLK(h)
Outline: as §1

[9] = molecular target: panel of human kinases (kinase named in endpoint) (Homo sapiens, UniProt Q9P286); conditions: 10 µM; read-out: Activity (%), PAK5(h)
Outline: as §1

[10] = molecular target: panel of human kinases (kinase named in endpoint) (Homo sapiens, UniProt P25098); conditions: 10 µM; read-out: Activity (%), GRK2(h)
Outline: as §1

[11] = molecular target: panel of human kinases (kinase named in endpoint) (Homo sapiens, UniProt P08631); conditions: 10 µM
Outline: as §1

[12] = molecular target: panel of human kinases (kinase named in endpoint) (Homo sapiens, UniProt P46734); conditions: 10 µM; read-out: Activity (%), MKK3(h)
Outline: as §1

[13] = molecular target: panel of human kinases (kinase named in endpoint) (Homo sapiens, UniProt P23458); conditions: 10 µM; read-out: Activity (%), JAK1(h)
Outline: as §1

[14] = molecular target: panel of human kinases (kinase named in endpoint) (Homo sapiens, UniProt Q99683); conditions: 10 µM; read-out: Activity (%), ASK1(h)
Outline: as §1

[15] = molecular target: panel of human kinases (kinase named in endpoint) (Homo sapiens, UniProt O94921); conditions: 10 µM; read-out: Activity (%), CDK14/cyclinY(h)
Outline: as §1

[16] = molecular target: panel of human kinases (kinase named in endpoint) (Homo sapiens, UniProt P68400); conditions: 10 µM
Outline: as §1

[17] = molecular target: panel of human kinases (kinase named in endpoint) (Homo sapiens, UniProt P20794); conditions: 10 µM; read-out: Activity (%), MAK(h)
Outline: as §1

[18] = molecular target: panel of human kinases (kinase named in endpoint) (Homo sapiens, UniProt O94806); conditions: 10 µM; read-out: Activity (%), PKD3(h)
Outline: as §1

[19] = molecular target: panel of human kinases (kinase named in endpoint) (Homo sapiens, UniProt O75460); conditions: 10 µM; read-out: Activity (%), IRE1(h)
Outline: as §1

[20] = molecular target: panel of human kinases (kinase named in endpoint) (Homo sapiens, UniProt P08581, Y1230D); conditions: 10 µM; read-out: Activity (%), Met(Y1248D)(h)
Outline: as §1

[21] = molecular target: panel of human kinases (kinase named in endpoint) (Homo sapiens, UniProt P49841); conditions: 10 µM; read-out: Activity (%), GSK3β(h)
Outline: as §1

[22] = molecular target: panel of human kinases (kinase named in endpoint) (Homo sapiens, UniProt Q02763, R849W); conditions: 10 µM; read-out: Activity (%), Tie2(R849W)(h)
Outline: as §1

[23] = molecular target: panel of human kinases (kinase named in endpoint) (Homo sapiens, UniProt Q13237); conditions: 10 µM; read-out: Activity (%), PRKG2(h)
Outline: as §1

[24] = molecular target: panel of human kinases (kinase named in endpoint) (Homo sapiens, UniProt P50613); conditions: 10 µM; read-out: Activity (%), CDK7/cyclinH/MAT1(h)
Outline: as §1

[25] = molecular target: panel of human kinases (kinase named in endpoint) (Homo sapiens, UniProt Q05655); conditions: 10 µM; read-out: Activity (%), PKCδ(h)
Outline: as §1

Chain of panel of human kinases (kinase named in endpoint) (Homo sapiens, UniProt P08631) (P08631 whole entry): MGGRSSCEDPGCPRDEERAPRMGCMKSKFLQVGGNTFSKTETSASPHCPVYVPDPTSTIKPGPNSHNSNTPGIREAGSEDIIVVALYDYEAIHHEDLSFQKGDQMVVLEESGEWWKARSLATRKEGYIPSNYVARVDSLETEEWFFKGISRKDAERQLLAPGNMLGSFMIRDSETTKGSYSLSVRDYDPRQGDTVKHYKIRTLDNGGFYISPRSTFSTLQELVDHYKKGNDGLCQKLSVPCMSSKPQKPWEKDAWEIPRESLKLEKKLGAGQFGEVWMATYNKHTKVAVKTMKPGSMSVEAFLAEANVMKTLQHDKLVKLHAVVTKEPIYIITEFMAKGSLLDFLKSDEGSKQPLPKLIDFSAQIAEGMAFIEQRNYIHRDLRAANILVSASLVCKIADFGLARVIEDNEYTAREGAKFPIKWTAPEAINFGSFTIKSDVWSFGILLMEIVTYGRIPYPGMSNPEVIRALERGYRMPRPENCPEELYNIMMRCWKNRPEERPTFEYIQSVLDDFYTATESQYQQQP
Chain of panel of human kinases (kinase named in endpoint) (Homo sapiens, UniProt P68400) (P68400 whole entry): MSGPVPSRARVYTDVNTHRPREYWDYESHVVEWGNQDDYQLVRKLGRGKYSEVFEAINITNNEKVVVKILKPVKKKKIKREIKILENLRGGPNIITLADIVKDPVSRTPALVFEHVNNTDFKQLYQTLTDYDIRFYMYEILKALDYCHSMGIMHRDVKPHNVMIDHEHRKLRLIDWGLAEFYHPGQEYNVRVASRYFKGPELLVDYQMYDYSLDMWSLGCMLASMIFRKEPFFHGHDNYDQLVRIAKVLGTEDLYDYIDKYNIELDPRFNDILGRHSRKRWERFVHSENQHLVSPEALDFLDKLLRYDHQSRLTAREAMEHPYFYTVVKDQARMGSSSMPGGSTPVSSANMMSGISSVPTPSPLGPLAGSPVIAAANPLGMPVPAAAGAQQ
Chain of panel of human kinases (kinase named in endpoint) (Homo sapiens, UniProt O75460) (O75460 19-977): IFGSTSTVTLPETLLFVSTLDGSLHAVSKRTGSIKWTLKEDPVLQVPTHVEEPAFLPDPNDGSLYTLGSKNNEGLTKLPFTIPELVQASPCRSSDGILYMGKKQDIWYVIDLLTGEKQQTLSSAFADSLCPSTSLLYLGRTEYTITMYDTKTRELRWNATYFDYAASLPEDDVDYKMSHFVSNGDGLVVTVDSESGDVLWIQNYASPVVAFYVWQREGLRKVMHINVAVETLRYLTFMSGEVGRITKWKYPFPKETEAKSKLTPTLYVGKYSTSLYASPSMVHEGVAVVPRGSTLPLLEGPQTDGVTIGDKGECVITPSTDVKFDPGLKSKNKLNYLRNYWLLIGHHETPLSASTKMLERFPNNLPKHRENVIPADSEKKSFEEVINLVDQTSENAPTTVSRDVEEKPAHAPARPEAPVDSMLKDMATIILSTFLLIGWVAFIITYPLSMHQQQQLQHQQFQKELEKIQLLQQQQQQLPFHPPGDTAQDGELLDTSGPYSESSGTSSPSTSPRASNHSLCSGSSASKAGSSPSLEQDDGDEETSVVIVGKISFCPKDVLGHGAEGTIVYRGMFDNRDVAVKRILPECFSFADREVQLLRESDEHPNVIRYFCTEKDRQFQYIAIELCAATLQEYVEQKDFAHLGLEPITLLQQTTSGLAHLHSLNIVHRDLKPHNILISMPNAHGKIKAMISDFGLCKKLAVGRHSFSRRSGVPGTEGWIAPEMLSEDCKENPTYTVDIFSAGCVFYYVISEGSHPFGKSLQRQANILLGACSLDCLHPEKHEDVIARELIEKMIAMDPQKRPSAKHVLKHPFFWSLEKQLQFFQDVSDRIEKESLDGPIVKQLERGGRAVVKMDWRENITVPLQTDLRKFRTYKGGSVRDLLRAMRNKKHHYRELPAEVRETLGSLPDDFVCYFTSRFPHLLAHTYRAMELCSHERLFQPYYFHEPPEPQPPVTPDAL
Chain of panel of human kinases (kinase named in endpoint) (Homo sapiens, UniProt Q9H2G2) (Q9H2G2 whole entry): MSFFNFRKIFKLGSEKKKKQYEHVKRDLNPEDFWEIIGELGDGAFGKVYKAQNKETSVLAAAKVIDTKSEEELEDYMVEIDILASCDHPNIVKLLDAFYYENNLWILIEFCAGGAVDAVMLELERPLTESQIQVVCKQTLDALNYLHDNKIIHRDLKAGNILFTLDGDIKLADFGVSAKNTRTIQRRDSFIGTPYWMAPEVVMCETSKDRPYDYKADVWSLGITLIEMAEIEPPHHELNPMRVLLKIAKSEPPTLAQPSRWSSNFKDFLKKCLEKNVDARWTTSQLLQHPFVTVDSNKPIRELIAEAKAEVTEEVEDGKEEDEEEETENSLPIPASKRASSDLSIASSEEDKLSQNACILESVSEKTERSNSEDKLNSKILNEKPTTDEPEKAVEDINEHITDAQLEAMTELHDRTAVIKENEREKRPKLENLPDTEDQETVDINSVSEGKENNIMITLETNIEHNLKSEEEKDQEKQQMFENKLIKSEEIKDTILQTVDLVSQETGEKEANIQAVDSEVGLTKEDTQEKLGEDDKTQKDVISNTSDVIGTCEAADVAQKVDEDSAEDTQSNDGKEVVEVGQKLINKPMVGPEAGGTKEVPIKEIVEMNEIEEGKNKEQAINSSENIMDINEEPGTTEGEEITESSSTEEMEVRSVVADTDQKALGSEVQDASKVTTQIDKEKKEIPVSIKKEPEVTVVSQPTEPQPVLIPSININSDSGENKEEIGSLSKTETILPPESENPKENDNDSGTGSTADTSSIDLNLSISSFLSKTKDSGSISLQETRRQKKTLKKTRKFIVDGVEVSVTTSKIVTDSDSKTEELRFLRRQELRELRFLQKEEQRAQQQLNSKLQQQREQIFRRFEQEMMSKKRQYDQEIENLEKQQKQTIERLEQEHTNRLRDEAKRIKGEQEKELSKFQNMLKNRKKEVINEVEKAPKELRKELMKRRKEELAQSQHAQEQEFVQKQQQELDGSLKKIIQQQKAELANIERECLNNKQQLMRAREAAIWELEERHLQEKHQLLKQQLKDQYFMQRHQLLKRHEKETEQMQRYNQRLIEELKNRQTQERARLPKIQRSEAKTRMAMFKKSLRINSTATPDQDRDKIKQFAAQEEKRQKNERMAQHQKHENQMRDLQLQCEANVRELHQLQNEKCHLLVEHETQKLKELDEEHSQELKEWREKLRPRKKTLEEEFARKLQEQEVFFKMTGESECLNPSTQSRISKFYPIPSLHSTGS
Chain of panel of human kinases (kinase named in endpoint) (Homo sapiens, UniProt Q15349) (Q15349 whole entry): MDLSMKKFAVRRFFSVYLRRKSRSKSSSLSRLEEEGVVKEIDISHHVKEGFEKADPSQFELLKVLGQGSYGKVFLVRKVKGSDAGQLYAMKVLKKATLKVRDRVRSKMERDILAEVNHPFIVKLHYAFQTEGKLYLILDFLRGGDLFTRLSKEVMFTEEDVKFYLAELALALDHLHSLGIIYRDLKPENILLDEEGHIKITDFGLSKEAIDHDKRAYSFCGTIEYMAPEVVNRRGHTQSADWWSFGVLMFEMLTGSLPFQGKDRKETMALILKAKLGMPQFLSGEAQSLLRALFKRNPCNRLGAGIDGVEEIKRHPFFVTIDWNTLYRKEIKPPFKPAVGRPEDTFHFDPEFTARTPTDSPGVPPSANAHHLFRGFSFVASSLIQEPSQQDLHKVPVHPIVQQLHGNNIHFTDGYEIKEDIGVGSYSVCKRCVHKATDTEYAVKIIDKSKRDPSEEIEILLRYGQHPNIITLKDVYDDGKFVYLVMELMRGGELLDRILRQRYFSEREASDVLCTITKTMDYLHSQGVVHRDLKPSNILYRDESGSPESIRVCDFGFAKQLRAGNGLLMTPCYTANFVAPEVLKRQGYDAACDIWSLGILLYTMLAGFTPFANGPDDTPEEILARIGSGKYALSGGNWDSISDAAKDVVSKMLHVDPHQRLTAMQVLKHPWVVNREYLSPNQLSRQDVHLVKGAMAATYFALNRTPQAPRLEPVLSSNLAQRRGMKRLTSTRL
Chain of panel of human kinases (kinase named in endpoint) (Homo sapiens, UniProt P31751) (P31751 whole entry): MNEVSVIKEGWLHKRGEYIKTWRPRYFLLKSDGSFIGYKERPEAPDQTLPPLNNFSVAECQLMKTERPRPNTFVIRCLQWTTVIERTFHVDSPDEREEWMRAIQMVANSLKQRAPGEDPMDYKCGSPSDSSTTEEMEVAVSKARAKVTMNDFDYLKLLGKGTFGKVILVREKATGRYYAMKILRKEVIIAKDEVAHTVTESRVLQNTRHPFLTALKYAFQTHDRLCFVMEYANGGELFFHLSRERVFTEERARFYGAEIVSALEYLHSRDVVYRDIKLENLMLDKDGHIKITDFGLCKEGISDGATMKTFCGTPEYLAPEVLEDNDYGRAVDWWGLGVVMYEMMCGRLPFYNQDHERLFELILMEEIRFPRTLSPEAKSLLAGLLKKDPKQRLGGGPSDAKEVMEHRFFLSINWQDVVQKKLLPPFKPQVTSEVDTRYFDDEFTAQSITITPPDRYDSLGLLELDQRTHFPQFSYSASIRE
Chain of panel of human kinases (kinase named in endpoint) (Homo sapiens, UniProt P23443) (P23443 whole entry): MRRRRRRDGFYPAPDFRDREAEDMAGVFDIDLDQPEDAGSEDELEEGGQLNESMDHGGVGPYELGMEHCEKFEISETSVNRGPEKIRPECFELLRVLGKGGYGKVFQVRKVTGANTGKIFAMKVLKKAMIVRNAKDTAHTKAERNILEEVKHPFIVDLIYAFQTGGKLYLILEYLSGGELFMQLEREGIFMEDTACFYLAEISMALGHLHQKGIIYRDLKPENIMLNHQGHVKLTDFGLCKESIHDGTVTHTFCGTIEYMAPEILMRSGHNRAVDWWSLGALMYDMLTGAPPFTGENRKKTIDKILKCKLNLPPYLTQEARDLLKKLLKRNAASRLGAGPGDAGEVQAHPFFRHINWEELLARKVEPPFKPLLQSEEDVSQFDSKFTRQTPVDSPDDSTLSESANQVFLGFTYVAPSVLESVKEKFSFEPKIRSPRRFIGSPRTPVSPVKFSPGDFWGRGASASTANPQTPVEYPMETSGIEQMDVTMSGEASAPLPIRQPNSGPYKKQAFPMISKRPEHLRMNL

Question: Which results are given for `CC(C)C(=O)Nc1nc2cc(-c3ccc4c(c3)c(C(=O)NC(C)c3ccccc3)cn4C)ccn2n1` (stereo not drawn) [RI-962]?
Answer: activity at 10 µM [1]: 106%; activity at 10 µM [2]: 100%; activity at 10 µM [3]: 55%; activity at 10 µM [4]: 103%; activity at 10 µM [5]: 110%; activity at 10 µM [6]: 68%; activity at 10 µM [7]: 92%; activity at 10 µM [8]: 84%; activity at 10 µM [9]: 93%; activity at 10 µM [10]: 86%; activity at 10 µM ([11]; read-out: Activity (%), Hck(h)): 93%; activity at 10 µM ([11]; read-out: Activity (%), Hck(h) activated): 97%; activity at 10 µM [12]: 103%; activity at 10 µM [13]: 85%; activity at 10 µM [14]: 97%; activity at 10 µM [15]: 91%; activity at 10 µM ([16]; read-out: Activity (%), CK2(h)): 91%; activity at 10 µM ([16]; read-out: Activity (%), CK2α1(h)): 94%; activity at 10 µM [17]: 126%; activity at 10 µM [18]: 104%; activity at 10 µM [19]: 115%; activity at 10 µM [20]: 110%; activity at 10 µM [21]: 111%; activity at 10 µM [22]: 109%; activity at 10 µM [23]: 105%; activity at 10 µM [24]: 93%; activity at 10 µM [25]: 90%
